Data published in the NIST ThermoML archive (doi:10.1021/je2004462).

Experiments:
[1] = for mass density / viscosity: 101.33 kPa, Liquid; for surface tension liquid-gas: Pendant drop shape
[2] = refractive index (Na D-line) (dimensionless); details: 101.33 kPa, Liquid, Standard Abbe refractometry

CCOS(=O)(=O)[O-].CCn1cc[n+](C)c1 [1-ethyl-3-methylimidazolium ethyl sulfate]
Details | mass density, [1] [kg/m3] | refractive index, [2] | surface tension liquid-gas, [1] [mN/m] | viscosity, [1] [mPa·s]
293.15 K | 1241.86 | 1.47959 | – | 122.07
303.15 K | 1235.06 | 1.47694 | 47.34 | 75.1
313.15 K | 1228.28 | 1.47429 | 46.67 | 49.84
323.15 K | 1221.54 | 1.47158 | 46.17 | 35.34
333.15 K | 1214.84 | 1.46893 | 45.53 | 25.93
343.15 K | 1208.19 | 1.46625 | – | 19.36
353.15 K | 1201.58 | 1.46359 | – | 15.12

CCn1cc[n+](C)c1.O=S(=O)([O-])C(F)(F)C(F)F
Details | mass density, [1] [kg/m3] | refractive index, [2] | surface tension liquid-gas, [1] [mN/m] | viscosity, [1] [mPa·s]
293.15 K | 1435.84 | 1.441 | – | 117.43
303.15 K | 1427.44 | 1.43833 | 43.29 | 72.64
313.15 K | 1419.04 | 1.4357 | 42.45 | 48.32
323.15 K | 1410.67 | 1.43304 | 42.03 | 33.94
333.15 K | 1402.33 | 1.43041 | 41.43 | 25.05
343.15 K | 1394.02 | 1.42777 | – | 18.86
353.15 K | 1385.76 | 1.42514 | – | 14.74
